What is called Ki is a dissociation constant, usually derived from enzyme kinetics or from competition with a known ligand. As a reminder, the EC50 is the concentration that produces a half-maximal response.

The target in one test is human GLP-1R (Homo sapiens, UniProt P43220). Description: [125I]-GLP-1 binding (SPA), human GLP-1 receptor. The arrangement: expressed in transfected cells; crude membranes. Particulars: read-out: hGLP1R Ki, (nM) (SEM, n). A digest of the protocol: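 Crude-membrane binding assay; one membrane prep included 1 mM MgCl2 and 25 units/ml DNAse I during lysis. Assay buffer at pH 7.4 contains 0.1% (w/v) bacitracin and 0.003% (w/v) TWEEN-20. Ki is reported as geometric mean.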

Test [1] has as its target human GLP-1 receptor (GLP-1R) (Homo sapiens, UniProt P43220). Description: cAMP pharmacological functional assay in presence of casein, hGLP-1R. The format is cell-based. Particulars: HEK293 cells expressing hGLP-1R, 0.1% Casein, geometric mean; read-out: hGLP1R cAMP Rel EC50 nM (SEM, n).
Another test concerns the target T1, human Gcg receptor (Homo sapiens, UniProt P47871).
T1 construct: expressed in transfected cells; crude membranes
Description: [125I]-Glucagon binding (SPA), human Gcg receptor. The settings on record: read-out: hGLcgR Ki, nM (SEM, n). A digest of the protocol: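 Crude membranes from cells expressing the receptor, prepared by hypotonic lysis in 50 mM Tris HCl pH 7.5 with protease inhibitors, homogenization and differential centrifugation, were used in a WGA-bead SPA. Binding buffer: 25 mM HEPES pH 7.4, 2.5 mM CaCl2, 1 mM MgCl2, bacitracin, Tween-20.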

A further test has as its target T2, human GIP receptor (Homo sapiens, UniProt P48546).
T2 construct: expressed in transfected cells; crude membranes
T2 sequence (P48546 22-466): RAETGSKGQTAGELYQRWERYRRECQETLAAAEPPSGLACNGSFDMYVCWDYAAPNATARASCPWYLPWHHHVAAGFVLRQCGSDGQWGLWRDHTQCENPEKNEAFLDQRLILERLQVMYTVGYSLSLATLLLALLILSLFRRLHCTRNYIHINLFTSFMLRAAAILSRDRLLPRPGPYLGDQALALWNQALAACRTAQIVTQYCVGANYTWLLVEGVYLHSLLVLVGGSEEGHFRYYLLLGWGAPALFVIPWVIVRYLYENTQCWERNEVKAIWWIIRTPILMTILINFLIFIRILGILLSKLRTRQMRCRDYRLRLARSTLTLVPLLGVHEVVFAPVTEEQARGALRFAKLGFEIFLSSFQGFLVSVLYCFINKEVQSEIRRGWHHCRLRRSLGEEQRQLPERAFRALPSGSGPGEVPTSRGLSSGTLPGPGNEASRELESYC
Description: [125I]-GIP binding (SPA), human GIP receptor. The settings on record: read-out: hGIPR Ki, nM (SEM, n).

The target of test [2] is T3, gastric inhibitory peptide receptor (GIPR) (Homo sapiens, UniProt P48546).
T3 sequence (P48546 22-466): T2 sequence (P48546 22-466)
Description: cAMP pharmacological functional assay in presence of casein, hGIPR. The format is cell-based. Particulars: HEK293 cells expressing hGIPR, 0.1% Casein, geometric mean; read-out: hGIPR cAMP Rel EC50 nM (SEM, n).

Numbered stars: 1 amine (or outer) side, 2 acyl side, 3 side chain; on linkers, the order of the positions; unused ones are H or OH. Square brackets hold non-standard residues; d marks the D form. Side chains are listed from the residue outwards. Peptide text beside a SMILES is read from it. * marks the point of attachment. C20 diacid = O=C(O)CCCCCCCCCCCCCCCCCCC(=O)*; C18 diacid = O=C(O)CCCCCCCCCCCCCCCCC(=O)*; αMePhe(2-F) = C[C@](N)(Cc1ccccc1F)C(=O)O; γGlu = O=C(O)[C@H](CCC(=O)[*:2])N[*:1]; αMeF = C[C@](N)(Cc1ccccc1)C(=O)O; αMeL = CC(C)C[C@](C)(N)C(=O)O; AEEA = NCCOCCOCC(=O)O; Aib = CC(C)(N)C(=O)O

Sequence of human GLP-1 receptor (GLP-1R) (P43220 24-463): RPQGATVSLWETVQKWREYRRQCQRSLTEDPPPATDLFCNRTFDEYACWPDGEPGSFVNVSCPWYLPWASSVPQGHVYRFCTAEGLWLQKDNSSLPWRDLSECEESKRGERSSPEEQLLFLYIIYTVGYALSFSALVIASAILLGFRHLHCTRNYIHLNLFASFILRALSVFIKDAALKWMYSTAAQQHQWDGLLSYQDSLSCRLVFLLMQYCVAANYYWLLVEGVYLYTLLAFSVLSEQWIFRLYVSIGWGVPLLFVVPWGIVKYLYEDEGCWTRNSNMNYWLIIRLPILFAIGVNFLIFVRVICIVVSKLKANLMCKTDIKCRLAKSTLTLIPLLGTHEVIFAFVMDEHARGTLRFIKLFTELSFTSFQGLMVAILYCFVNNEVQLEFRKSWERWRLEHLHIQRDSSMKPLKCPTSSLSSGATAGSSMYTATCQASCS
Sequence of human GLP-1R (P43220 24-463): as above
T1 sequence (P47871 26-477): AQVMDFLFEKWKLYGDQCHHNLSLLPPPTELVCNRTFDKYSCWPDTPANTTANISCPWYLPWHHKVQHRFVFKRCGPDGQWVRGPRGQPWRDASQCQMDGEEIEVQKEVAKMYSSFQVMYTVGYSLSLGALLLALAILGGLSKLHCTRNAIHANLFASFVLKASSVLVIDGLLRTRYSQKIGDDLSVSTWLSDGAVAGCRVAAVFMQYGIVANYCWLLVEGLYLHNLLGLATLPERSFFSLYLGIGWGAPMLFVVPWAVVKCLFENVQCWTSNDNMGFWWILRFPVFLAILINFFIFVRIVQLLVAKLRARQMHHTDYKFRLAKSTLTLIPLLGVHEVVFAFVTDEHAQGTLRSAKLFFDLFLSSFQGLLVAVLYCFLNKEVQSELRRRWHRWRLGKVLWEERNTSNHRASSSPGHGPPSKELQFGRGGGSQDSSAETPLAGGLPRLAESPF

As for `CC[C@H](C)[C@H](NC(=O)[C@H](CCCCN)NC(=O)[C@H](CC(=O)O)NC(=O)[C@H](CCCCNC(=O)COCCOCCNC(=O)COCCOCCNC(=O)CC[C@H](NC(=O)CCCCCCCCCCCCCCCCCCC(=O)O)C(=O)O)NC(=O)[C@H](CC(C)C)NC(=O)[C@@H](NC(=O)[C@H](CO)NC(=O)[C@H](Cc1ccc(O)cc1)NC(=O)[C@H](CC(=O)O)NC(=O)[C@H](CO)NC(=O)[C@@H](NC(=O)[C@H](Cc1ccccc1)NC(=O)[C@@H](NC(=O)CNC(=O)[C@H](CCC(=O)O)NC(=O)C(C)(C)NC(=O)[C@@H](N)Cc1ccc(O)cc1)[C@@H](C)O)[C@@H](C)O)[C@@H](C)CC)C(=O)N[C@@H](C)C(=O)N[C@@H](CCC(N)=O)C(=O)NC(C)(C)C(=O)N[C@@H](C)C(=O)N[C@@H](Cc1ccccc1)C(=O)N[C@H](C(=O)N[C@@H](CCC(=O)O)C(=O)N[C@@H](Cc1ccc(O)cc1)C(=O)N[C@@H](CC(C)C)C(=O)N[C@H](C(=O)N[C@@H](CCC(=O)O)C(=O)NCC(=O)NCC(=O)N1CCC[C@H]1C(=O)N[C@@H](CO)C(=O)N[C@@H](CO)C(=O)NCC(=O)N[C@@H](C)C(=O)N1CCC[C@H]1C(=O)N1CCC[C@H]1C(=O)N1CCC[C@H]1C(=O)N[C@@H](CO)C(N)=O)[C@@H](C)CC)[C@@H](C)CC` [Example 27] (H-Y[Aib]EGTFTSDYSILK([AEEA-AEEA-γGlu-C20 diacid])DKIAQ[Aib]AFIEYLIEGGPSSGAPPPS-NH2), the figures for the inhibition constant Ki on human GLP-1R, on human Gcg receptor and at human GIP receptor were 3.68 nM, 315 nM and 0.103 nM, respectively. Further, the EC50 in test [1] was determined as 0.557 nM; in test [2], 0.0789 nM.

On to `CC[C@H](C)[C@H](NC(=O)[C@H](Cc1ccccc1)NC(=O)[C@H](C)NC(=O)C(C)(C)NC(=O)[C@H](CCC(N)=O)NC(=O)[C@H](C)NC(=O)[C@H](CCCCNC(=O)COCCOCCNC(=O)COCCOCCNC(=O)CC[C@H](NC(=O)CCCCCCCCCCCCCCCCCCC(=O)O)C(=O)O)NC(=O)[C@H](CCCCN)NC(=O)[C@H](CC(=O)O)NC(=O)[C@H](CC(C)C)NC(=O)[C@H](CC(C)C)NC(=O)[C@@H](NC(=O)[C@H](CO)NC(=O)[C@H](Cc1ccc(O)cc1)NC(=O)[C@H](CC(=O)O)NC(=O)[C@H](CO)NC(=O)[C@@H](NC(=O)[C@H](Cc1ccccc1)NC(=O)[C@@H](NC(=O)CNC(=O)[C@H](CCC(=O)O)NC(=O)C(C)(C)NC(=O)[C@@H](N)Cc1c[nH]cn1)[C@@H](C)O)[C@@H](C)O)[C@@H](C)CC)C(=O)N[C@@H](CCC(=O)O)C(=O)N[C@@H](Cc1ccc(O)cc1)C(=O)N[C@@H](CC(C)C)C(=O)N[C@H](C(=O)N[C@@H](CCC(=O)O)C(=O)NC(C)(C)C(=O)NCC(=O)N1CCC[C@H]1C(=O)N[C@@H](CO)C(=O)N[C@@H](CO)C(=O)NCC(=O)N[C@@H](C)C(=O)N1CCC[C@H]1C(=O)N1CCC[C@H]1C(=O)N1CCC[C@H]1C(=O)N[C@@H](CO)C(N)=O)[C@@H](C)CC` [Example 16] (H-H[Aib]EGTFTSDYSILLDKK([AEEA-AEEA-γGlu-C20 diacid])AQ[Aib]AFIEYLIE[Aib]GPSSGAPPPS-NH2), for which the Ki at human GLP-1R came out at 2.78 nM; at human Gcg receptor, 371 nM; at human GIP receptor, 0.0841 nM. Also, the half-maximal effective concentration (EC50) in test [1] amounted to 0.0437 nM; in test [2], 0.975 nM.

Consider `CC[C@H](C)[C@H](NC(=O)[C@H](CC(C)C)NC(=O)[C@H](Cc1ccc(O)cc1)NC(=O)[C@H](CCC(=O)O)NC(=O)[C@@H](NC(=O)[C@H](Cc1ccccc1)NC(=O)C(C)(C)NC(=O)[C@H](Cc1c[nH]cn1)NC(=O)[C@H](CCC(N)=O)NC(=O)[C@H](C)NC(=O)[C@H](CCCCNC(=O)COCCOCCNC(=O)COCCOCCNC(=O)CC[C@H](NC(=O)CCCCCCCCCCCCCCCCCCC(=O)O)C(=O)O)NC(=O)[C@H](CCCCN)NC(=O)[C@H](CC(=O)O)NC(=O)[C@H](CC(C)C)NC(=O)[C@](C)(CC(C)C)NC(=O)[C@@H](NC(=O)[C@H](CO)NC(=O)[C@H](Cc1ccc(O)cc1)NC(=O)[C@H](CC(=O)O)NC(=O)[C@H](CO)NC(=O)[C@@H](NC(=O)[C@](C)(Cc1ccccc1)NC(=O)[C@@H](NC(=O)CNC(=O)[C@H](CCC(=O)O)NC(=O)C(C)(C)NC(=O)[C@@H](N)Cc1ccc(O)cc1)[C@@H](C)O)[C@@H](C)O)[C@@H](C)CC)[C@@H](C)CC)C(=O)N[C@@H](CCC(=O)O)C(=O)NCC(=O)NCC(=O)N1CCC[C@H]1C(=O)N[C@@H](CO)C(=O)N[C@@H](CO)C(=O)NCC(=O)N[C@@H](C)C(=O)N1CCC[C@H]1C(=O)N1CCC[C@H]1C(=O)N1CCC[C@H]1C(=O)N[C@@H](CO)C(N)=O` [Example 144] (H-Y[Aib]EGT[αMeF]TSDYSI[αMeL]LDKK([AEEA-AEEA-γGlu-C20 diacid])AQH[Aib]FIEYLIEGGPSSGAPPPS-NH2), for which the Ki at human GLP-1R is 1.78 nM; on human Gcg receptor, 77 nM; at human GIP receptor, 0.0341 nM. For the same compound, the concentration giving a half-maximal response (EC50) was determined as 0.0608 nM in test [1] and 0.0375 nM in test [2].

`CC[C@H](C)[C@H](NC(=O)[C@H](CC(C)C)NC(=O)[C@H](Cc1ccc(O)cc1)NC(=O)[C@@H](CCC(=O)O)NC(=O)[C@@H](NC(=O)[C@H](Cc1ccccc1)NC(=O)[C@H](CCC(=O)O)NC(=O)C(C)(C)NC(=O)[C@H](CCC(N)=O)NC(=O)[C@H](C)NC(=O)[C@H](CCCCNC(=O)COCCOCCNC(=O)COCCOCCNC(=O)CC[C@H](NC(=O)CCCCCCCCCCCCCCCCCCC(=O)O)C(=O)O)NC(=O)[C@H](CCC(=O)O)NC(=O)[C@H](CC(=O)O)NC(=O)[C@H](CC(C)C)NC(=O)[C@](C)(CC(C)C)NC(=O)[C@H](CO)NC(=O)[C@H](Cc1ccc(O)cc1)NC(=O)[C@H](CC(=O)O)NC(=O)[C@H](CO)NC(=O)[C@@H](NC(=O)[C@](C)(Cc1ccccc1F)NC(=O)[C@@H](NC(=O)CNC(=O)[C@H](CCC(=O)O)NC(=O)C(C)(C)NC(=O)[C@@H](N)Cc1ccc(O)cc1)[C@@H](C)O)[C@@H](C)O)[C@@H](C)CC)C(=O)N[C@@H](CCC(=O)O)C(=O)NCC(=O)NCC(=O)N1CCC[C@H]1C(=O)N[C@@H](CO)C(=O)N[C@@H](CO)C(=O)NCC(=O)N[C@@H](C)C(=O)N1CCC[C@H]1C(=O)N1CCC[C@H]1C(=O)N1CCC[C@H]1C(=O)N[C@@H](CO)C(N)=O` [Example 229] (H-Y[Aib]EGT[αMePhe(2-F)]TSDYS[αMeL]LDEK([AEEA-AEEA-γGlu-C20 diacid])AQ[Aib]EFI[dE]YLIEGGPSSGAPPPS-NH2): the Ki on human GLP-1R is 36.2 nM; at human Gcg receptor it was over 1100 nM; on human GIP receptor it was 2.47 nM. The values for the EC50 in test [1] and in test [2] were 2.11 nM and 4.79 nM, respectively.

Turning to `CC[C@H](C)[C@H](NC(=O)[C@H](CC(C)C)NC(=O)[C@H](Cc1ccc(O)cc1)NC(=O)[C@H](CCC(=O)O)NC(=O)[C@@H](NC(=O)[C@H](Cc1ccccc1)NC(=O)[C@H](CC(=O)O)NC(=O)C(C)(C)NC(=O)[C@H](CCC(N)=O)NC(=O)[C@H](C)NC(=O)[C@H](CCCCNC(=O)COCCOCCNC(=O)COCCOCCNC(=O)CC[C@H](NC(=O)CCCCCCCCCCCCCCCCC(=O)O)C(=O)O)NC(=O)[C@H](CCCCN)NC(=O)[C@H](CC(=O)O)NC(=O)[C@H](CC(C)C)NC(=O)[C@H](CC(C)C)NC(=O)[C@@H](NC(=O)[C@H](CO)NC(=O)[C@H](Cc1ccc(O)cc1)NC(=O)[C@H](CC(=O)O)NC(=O)[C@H](CO)NC(=O)[C@@H](NC(=O)[C@H](Cc1ccccc1)NC(=O)[C@@H](NC(=O)CNC(=O)[C@H](CCC(=O)O)NC(=O)C(C)(C)NC(=O)[C@@H](N)Cc1ccc(O)cc1)[C@@H](C)O)[C@@H](C)O)[C@@H](C)CC)[C@@H](C)CC)C(=O)N[C@@H](CCC(=O)O)C(=O)NCC(=O)NCC(=O)N1CCC[C@H]1C(=O)N[C@@H](CO)C(=O)N[C@@H](CO)C(=O)NCC(N)=O` [Example 320] (H-Y[Aib]EGTFTSDYSILLDKK([AEEA-AEEA-γGlu-C18 diacid])AQ[Aib]DFIEYLIEGGPSSG-NH2; N-terminus assumed), the Ki is 5.17 nM at human GLP-1R, over 1040 nM on human Gcg receptor and 0.136 nM at human GIP receptor. Further, the values for the EC50 in test [1] and in test [2] were 0.397 nM and 0.161 nM, respectively.

Values taken from patent US12252524B2, “GIP/GLP1 co-agonist compounds” (Eli Lilly and Company, priority 2018, dated 2025).
